Assay results taken from patent US8288424B2, “Substituted tetrahydroimidazopyridine compounds and the use thereof in the treatment of pain and other conditions” (Gruenenthal GmbH, priority 2008, dated 2012).

Biological target: T1, KCNQ2/3 channels (Homo sapiens, UniProt O43525+O43526)
T1 construct: expressed in transfected cells; host or cells: CHO-K1
Test: Fluorescence assay using a voltage-sensitive dye
Type: cell-based
Conditions: CHO-K1 cells expressing KCNQ2/3 channels, agonistic activity; for activation at 10 µM: 10 μmol test substance, read-out: % Stimulation [10 μmol] Average
Procedure: Fluorescence Assay Using a Voltage-Sensitive Dye
Human CHO-K1 cells expressing KCNQ2/3 channels are cultivated adherently at 37° C., 5% CO2 and 95% humidity in cell culture bottles (e.g. 80 cm^2 TC flasks, Nunc) with MEM Alpha Medium (1×, liquid, Invitrogen, #22571), 10% foetal calf serum (FCS) (Invitrogen, #10270-106, heat-inactivated) and the necessary selection antibiotics. Before being spread out for the measurements, the cells are washed with a 1×DPBS buffer without Ca^2+/Mg^2+ (e.g. Invitrogen, #14190-094) and detached from the bottom of the culture vessel by means of Accutase (PAA Laboratories, #L11-007) (incubation with Accutase for 15 min at 37° C.). The cell count then present is determined using a CASY™ cell counter (TCC model, Schärfe System) in order subsequently to apply 20,000 cells/well/100 μl of the described nutrient medium to 96-well measuring plates of the Corning™ CellBIND™ type (flat clear-bottom black polystyrene microplates, #3340). Incubation is then carried out for one hour at room temperature, without gassing or adjusting the humidity, followed by incubation for 24 hours at 37° C., 5% CO2 and 95% humidity.
The voltage-sensitive fluorescent dye from the Membrane Potential Assay Kit (Red bulk format part R8123 for FLIPR, Molecular Devices™) is prepared by dissolving the contents of a vessel of Membrane Potential Assay Kit Red Component A in 200 ml of extracellular buffer (ES buffer, 120 mM NaCl, 1 mM KCl, 10 mM HEPES, 2 mM CaCl2, 2 mM MgCl2, 10 mM glucose; pH 7.4). After removal of the nutrient medium, the cells are washed with 200 μl of ES buffer, then covered with a layer of 100 μl of the dye solution prepared above and incubated for 45 min at room temperature with exclusion of light.
The fluorescence measurements are carried out with a BMG Labtech FLUOstar™ or BMG Labtech POLARstar™ instrument (525 nm excitation, 560 nm emission, bottom-read mode). After incubation of the dye, 50 μl of the substances to be tested in the desired concentrations, or 50 μl of ES buffer for control purposes, are introduced into separate cavities of the measuring plate and incubated for 30 min at room temperature whilst being shielded from light. The fluorescence intensity of the dye is then measured for 5 min and the fluorescence value F1 of each well is thus determined at a given, constant time. 15 μl of a […] KCl solution ([…]) are then added to each well. The change in fluorescence is subsequently measured until all relevant measured values have been obtained (mainly 5-30 min). At a given time after KCl application, a fluorescence value F2 is determined, in this case at the time of the fluorescence peak.
For calculation, the fluorescence intensity F2 is compared with the fluorescence intensity F1, and the agonistic activity of the target compound on the potassium channel is determined therefrom. F2 and F1 are calculated as follows:
[formula] In order to determine whether a substance has an agonistic activity,
[formula] for example, can be compared with
[formula] of control cells.
[formula] is determined by adding to the reaction batch only the buffer solution instead of the substance to be tested, determining the value F1K of the fluorescence intensity, adding the potassium ions as described above and measuring a value F2K of the fluorescence intensity. Then F2K and F1K are calculated as follows:
[formula] A substance has an agonistic activity on the potassium channel when
[formula] is greater than
[formula] Independently of the comparison of
[formula] it is also possible to conclude that a target compound has an agonistic activity if an increase in
[formula] is to be observed as the dosage of the target compound increases. Calculations of EC50 and IC50 values are carried out with the aid of Prism 4 software (GraphPad Software™).

| Structure (SMILES) | EC50 [µM] | activation at 10 µM [%] |
| --- | --- | --- |
| COc1ccc(C2CCc3nc(C(=O)N4CCN(c5cccc(C(F)(F)F)c5)CC4)cn3C2)c(OC)c1 (stereo not shown) [Compound 46, (6-(2,4-Dimethoxyphenyl)-5,6,7,8-tetrahydroimidazo[1,2-a]pyridin-2-yl)(4-(3-(trifluoromethyl)phenyl)piperazin-1-yl)methanone] | 3.98 |  |
| Cc1cc(C2CCc3nc(C(=O)N(C)C(C)CCc4cccc(C(F)(F)F)c4)cn3C2)ccc1F (stereo not shown) [Compound 87, 6-(4-Fluoro-3-methylphenyl)-N-methyl-N-(4-(3-(trifluoromethyl)phenyl)butan-2-yl)-5,6,7,8-tetrahydroimidazo[1,2-a]pyridine-2-carboxamide] |  | 48.4 |
| COc1ccc(C2CCc3nc(C(=O)NCc4cccc(C(F)(F)F)c4)cn3C2)cc1 (stereo not shown) [Compound 39, 6-(4-Methoxyphenyl)-N-(3-(trifluoromethyl)benzyl)-5,6,7,8-tetrahydroimidazo[1,2-a]pyridine-2-carboxamide] |  | 17.8 |
| COc1ccc(C2CCc3nc(C(=O)N4CCCC4)cn3C2)c(OC)c1 (stereo not shown) [Compound 33, (6-(2,4-Dimethoxyphenyl)-5,6,7,8-tetrahydroimidazo[1,2-a]pyridin-2-yl)(pyrrolidin-1-yl)methanone] |  | 24.5 |
| CC1(C)CC2CC(C)(CN2C(=O)c2cn3c(n2)CCC(c2ccc(F)cc2)C3)C1 (stereo not shown) [Compound 38, (6-(4-Fluorophenyl)-5,6,7,8-tetrahydroimidazo[1,2-a]pyridin-2-yl)(1,3,3-trimethyl-6-azabicyclo[3.2.1]octan-6-yl)methanone] |  | 25.9 |
| CCc1ccc(C2CCc3nc(C(=O)NC(C)CCc4ccccc4)cn3C2)cc1 (stereo not shown) [Compound 52, 6-(4-Ethylphenyl)-N-(4-phenylbutan-2-yl)-5,6,7,8-tetrahydroimidazo[1,2-a]pyridine-2-carboxamide] |  | 34.2 |
| O=C(NCc1cccnc1)c1cn2c(n1)CCC(c1ccc(Oc3ccccc3)cc1)C2 (stereo not shown) [Compound 24, 6-(4-Phenoxyphenyl)-N-(pyridin-3-ylmethyl)-5,6,7,8-tetrahydroimidazo[1,2-a]pyridine-2-carboxamide] | 6.14 |  |
| Cc1cc(C)cc(C(C)NC(=O)c2cn3c(n2)CCC(c2ccc(F)c(C)c2)C3)c1 (stereo not shown) [Compound 78, N-(1-(3,5-Dimethylphenyl)ethyl)-6-(4-fluoro-3-methylphenyl)-5,6,7,8-tetrahydroimidazo[1,2-a]pyridine-2-carboxamide] |  | 29.7 |
| O=C(c1cn2c(n1)CCC(c1cc(C(F)(F)F)cc(C(F)(F)F)c1)C2)N1CCCC1 (stereo not shown) [Compound 30, (6-(3,5-Bis(trifluoromethyl)phenyl)-5,6,7,8-tetrahydroimidazo[1,2-a]pyridin-2-yl)(pyrrolidin-1-yl)methanone] |  | 20.9 |
| CCc1ccc(C2CCc3nc(C(=O)NCCc4ccccc4)cn3C2)cc1 (stereo not shown) [Compound 40, 6-(4-Ethylphenyl)-N-phenethyl-5,6,7,8-tetrahydroimidazo[1,2-a]pyridine-2-carboxamide] |  | 16.6 |

The next lines start with the values.

| EC50 [µM] | activation at 10 µM [%] | Structure (SMILES) |
| --- | --- | --- |
|  | 125 | O=C(c1cn2c(n1)CCC(c1ccc(F)c(F)c1)C2)N1CCN(c2cccc(C(F)(F)F)c2)CC1 (stereo not shown) [Compound 79, (6-(3,4-Difluorophenyl)-5,6,7,8-tetrahydroimidazo[1,2-a]pyridin-2-yl)(4-(3-(trifluoromethyl)phenyl)piperazin-1-yl)methanone] |
| 7.98 |  | CCOc1ccccc1N1CCN(C(=O)c2cn3c(n2)CCC(c2cccc(C)c2)C3)CC1 (stereo not shown) [Compound 45, (4-(2-Ethoxyphenyl)piperazin-1-yl)(6-m-tolyl-5,6,7,8-tetrahydroimidazo[1,2-a]pyridin-2-yl)methanone] |
|  | 25.1 | Cc1cc(C2CCc3nc(C(=O)NCC4CCCCC4)cn3C2)ccc1F (stereo not shown) [Compound 68, N-(Cyclohexylmethyl)-6-(4-fluoro-3-methylphenyl)-5,6,7,8-tetrahydroimidazo[1,2-a]pyridine-2-carboxamide] |
|  | 33.3 | Cc1cc(C2CCc3nc(C(=O)N4CCC(C(c5ccccc5)c5ccccc5)CC4)cn3C2)ccc1F (stereo not shown) [Compound 67, (4-Benzhydrylpiperidin-1-yl)(6-(4-fluoro-3-methylphenyl)-5,6,7,8-tetrahydroimidazo[1,2-a]pyridin-2-yl)methanone] |
|  | 32.2 | Cc1ccccc1C1CCc2nc(C(=O)N3CCCC3)cn2C1 (stereo not shown) [Compound 34, Pyrrolidin-1-yl(6-o-tolyl-5,6,7,8-tetrahydroimidazo[1,2-a]pyridin-2-yl)methanone] |
|  | 33.1 | Cc1cc(C2CCc3nc(C(=O)N4CCN(Cc5ccccc5)CC4)cn3C2)ccc1F (stereo not shown) [Compound 80, (4-Benzylpiperazin-1-yl)(6-(4-fluoro-3-methylphenyl)-5,6,7,8-tetrahydroimidazo[1,2-a]pyridin-2-yl)methanone] |
| 8.4 |  | CC1CCN(C(=O)c2cn3c(n2)CCC(c2ccc(Oc4ccccc4)cc2)C3)CC1 (stereo not shown) [Compound 21, (4-Methylpiperidin-1-yl)(6-(4-phenoxyphenyl)-5,6,7,8-tetrahydroimidazo[1,2-a]pyridin-2-yl)methanone] |
|  | 26.2 | Cc1cccc(C2CCc3nc(C(=O)N4CCCC4)cn3C2)c1 (stereo not shown) [Compound 29, Pyrrolidin-1-yl(6-m-tolyl-5,6,7,8-tetrahydroimidazo[1,2-a]pyridin-2-yl)methanone] |
|  | 40.8 | Cc1cc(C2CCc3nc(C(=O)N4CCN(c5ccc(C(F)(F)F)cc5)CC4)cn3C2)ccc1F (stereo not shown) [Compound 62, (6-(4-Fluoro-3-methylphenyl)-5,6,7,8-tetrahydroimidazo[1,2-a]pyridin-2-yl)(4-(4-(trifluoromethyl)phenyl)piperazin-1-yl)methanone] |
|  | 16.2 | O=C(c1cn2c(n1)CCC(c1ccccc1)C2)N1CCC(Cc2ccccc2)CC1 (stereo not shown) [Compound 1, (4-Benzylpiperidin-1-yl)(6-phenyl-5,6,7,8-tetrahydroimidazo[1,2-a]pyridin-2-yl)methanone] |
| 4.46 |  | Cc1cc(C2CCc3nc(C(=O)N4CCN(c5cccc(C(F)(F)F)c5)CC4)cn3C2)ccc1F (stereo not shown) [Compound 58, (6-(4-Fluoro-3-methylphenyl)-5,6,7,8-tetrahydroimidazo[1,2-a]pyridin-2-yl)(4-(3-(trifluoromethyl)phenyl)piperazin-1-yl)methanone] |
|  | 32.7 | O=C(c1cn2c(n1)CCC(c1ccc(OCc3ccccc3)cc1)C2)N1CCN(c2cccc(C(F)(F)F)c2)CC1 (stereo not shown) [Compound 82, (6-(4-(Benzyloxy)phenyl)-5,6,7,8-tetrahydroimidazo[1,2-a]pyridin-2-yl)(4-(3-(trifluoromethyl)phenyl)piperazin-1-yl)methanone] |
|  | 21.2 | O=C(c1cn2c(n1)CCC(c1cccc(C(F)(F)F)c1)C2)N1CCN(c2ccccc2F)CC1 (stereo not shown) [Compound 32, (4-(2-Fluorophenyl)piperazin-1-yl)(6-(3-(trifluoromethyl)phenyl)-5,6,7,8-tetrahydroimidazo[1,2-a]pyridin-2-yl)methanone] |
|  | 38.5 | CCc1ccc(C2CCc3nc(C(=O)N4CCC(Cc5ccccc5)CC4)cn3C2)cc1 (stereo not shown) [Compound 11, (4-Benzylpiperidin-1-yl)(6-(4-ethylphenyl)-5,6,7,8-tetrahydroimidazo[1,2-a]pyridin-2-yl)methanone] |
|  | 18 | Cc1cc(C2CCc3nc(C(=O)N4CCN(c5ccccc5F)CC4)cn3C2)ccc1F (stereo not shown) [Compound 13, (6-(4-Fluoro-3-methylphenyl)-5,6,7,8-tetrahydroimidazo[1,2-a]pyridin-2-yl)(4-(2-fluorophenyl)piperazin-1-yl)methanone] |
